Broadly, the MIC50 is the lowest concentration that inhibits either 50% of growth or 50% of the strains tested, depending on the study.

Assay [1] deals with C. neoformans ATCC 34664. Nature of the assay: Antifungal susceptibility, broth dilution MIC (CLSI M27-A2). The assay is classed as cell-based, Cryptococcus neoformans. The settings on record: Cryptococcus neoformans, ATCC34664; C. neoformans ATCC 34664; broth dilution, RPMI 1640 with MOPS, 48 hours; read-out: Activity against organisms (MIC50) Cn01. As for the experimental part:
(§1) The compounds of Formula 1 were tested for antifungal activity against Candida albicans, C. glabrata, C. krusei, C. tropicalis, Cryptococcus neoformans, Aspergillus fumigatus, A. niger and Fusarium proliferatum. In vitro evaluation of antifungal activity was performed by determining the minimum inhibitory concentration (MIC) following standard methods (CLSI: Reference method for broth dilution antifungal susceptibility testing of yeasts; Approved standard, second edition M27-A2, 2002; CLSI: Reference method for broth dilution antifungal susceptibility testing of filamentous fungi; Approved standard M38-A, 2002). Anti-fungal susceptibility testing of these anti-fungal compounds was done by broth dilution method using RPMI 1640 medium with MOPS buffer. Known anti-fungal agent fluconazole was used as positive control. End points were determined after 48 hours visually and by using spectrophotometer wherever necessary. Different dilutions were tried and various sets of experiments performed. The activity parameters are enumerated in Table 4.

Assay [2] concerns C. krusei ATCC 6258. The description is as above. The settings on record: Pichia kudriavzevii, ATCC6258; C. krusei ATCC 6258; broth dilution, RPMI 1640 with MOPS, 48 hours; read-out: Activity against organisms (MIC50) Ck01. It is filed as cell-based, Candida krusei. As for the experimental part:
as §1
A general note: Broth dilution looks for growth in wells or tubes with falling amounts of substance.

Assay [3] concerns C. glabrata ATCC 90030. The assay is described as above. The assay is classed as cell-based, Candida glabrata. The settings on record: Nakaseomyces glabratus, ATCC90030; C. glabrata ATCC 90030; broth dilution, RPMI 1640 with MOPS, 48 hours; read-out: Activity against organisms (MIC50) Cg01. As for the experimental part:
as §1

Assay [4] concerns C. albicans ATCC 24433. The description is as above. The assay is classed as cell-based. The settings on record: Candida albicans, ATCC24433; C. albicans ATCC 24433; broth dilution, RPMI 1640 with MOPS, 48 hours; read-out: Activity against organisms (MIC50) Ca01. The protocol:
as §1

In assay [5] the test system is A. niger ATCC 16404. In words: Antifungal susceptibility, broth dilution MIC (CLSI M38-A). The settings on record: Aspergillus niger, ATCC16404; A. niger ATCC 16404; broth dilution, RPMI 1640 with MOPS, 48 hours; read-out: Activity against organisms (MIC50) An01. The assay is classed as cell-based. As for the experimental part: as §1
Assay [6] relates to A. fumigatus ATCC 46645. The description is as above. Conditions: Aspergillus fumigatus, ATCC46645; A. fumigatus ATCC 46645; broth dilution, RPMI 1640 with MOPS, 48 hours; read-out: Activity against organisms (MIC50) Afm01. It is filed as cell-based. The protocol:
as §1

The subject of assay [7] is F. proliferatum ATCC 10052. Described as above. The settings on record: Fusarium proliferatum, ATCC10052; F. proliferatum ATCC 10052; broth dilution, RPMI 1640 with MOPS, 48 hours; read-out: Activity against organisms (MIC50) Fp01. The assay is classed as cell-based. As for the experimental part:
as §1

For assay [8], the system named is C. tropicalis ATCC 750. Nature of the assay: Antifungal susceptibility, broth dilution MIC (CLSI M27-A2). It is filed as cell-based, Candida tropicalis. The settings on record: Candida tropicalis, ATCC750; C. tropicalis ATCC 750; broth dilution, RPMI 1640 with MOPS, 48 hours; read-out: Activity against organisms (MIC50) Ct01. The protocol:
as §1

In brackets after ≈: the same amount, converted by molar mass.

`C/C=C/c1ccc(OCc2cn(CC(O)(Cn3cncn3)c3ccc(F)cc3F)nn2)cc1` (centres unmarked) [Compound 1C-4, (E)-2-(2,4-Difluorophenyl)-1-(4-((4-(prop-1-en-1-yl)phenoxy)methyl)-1H-1,2,3-triazol-1-yl)-3-(1H-1,2,4-triazol-1-yl)propan-2-ol]: the MIC50 in assay [1] was 0.5 µg/mL (≈ 1.11 µM); in assay [2], 8 µg/mL (≈ 17.7 µM); in assay [3], 0.06 µg/mL (≈ 0.133 µM); in assay [4] it was 0.03 µg/mL (≈ 0.0663 µM); in assay [5] it was 64 µg/mL (≈ 141 µM); in assay [6], 32 µg/mL (≈ 70.7 µM). Also, the MIC50 is more than 32 µg/mL in assay [7] and 0.12 µg/mL (≈ 0.265 µM) in assay [8].
`OC(Cn1cncn1)(Cn1cc(COc2ccccc2)nn1)c1ccc(F)cc1F` (centres unmarked) [Compound 1D-1, 2-(2,4-Difluorophenyl)-1-(4-phenyloxymethyl-1H-1,2,3-triazol-1-yl)-3-(1H-1,2,4-triazol-1-yl)propan-2-ol]: the MIC50 in assay [1] was 4 µg/mL (≈ 9.7 µM); in assay [2], more than 128 µg/mL; in assay [3], 0.25 µg/mL (≈ 0.606 µM); in assay [4], 0.25 µg/mL (≈ 0.606 µM); in assay [5], more than 128 µg/mL; in assay [6], more than 128 µg/mL. Further, the MIC50 in assay [7] is more than 128 µg/mL; in assay [8] it was 2 µg/mL (≈ 4.85 µM).
For `O=Cc1ccc(OCc2cn(CC(O)(Cn3cncn3)c3ccc(F)cc3F)nn2)cc1` (centres unmarked) [Compound 1D-2, 4-((1-(2-(2,4-difluorophenyl)-2-hydroxy-3-(1H-1,2,4-triazol-1-yl)propyl)-1H-1,2,3-triazol-4-yl)methoxy)benzaldehyde], the MIC50 in assay [1] is 4 µg/mL (≈ 9.08 µM); in assay [2], 64 µg/mL (≈ 145 µM); in assay [3] it was 1 µg/mL (≈ 2.27 µM); in assay [4] it was 0.5 µg/mL (≈ 1.14 µM); in assay [5], more than 128 µg/mL; in assay [6], more than 128 µg/mL. For the same compound, the MIC50 is more than 128 µg/mL in assay [7] and 2 µg/mL (≈ 4.54 µM) in assay [8].
Turning to `CC(=O)c1ccc(OCc2cn(CC(O)(Cn3cncn3)c3ccc(F)cc3F)nn2)cc1` (centres unmarked) [Compound 1D-3, 1-(4-(4-Acetylphenyloxy)methyl-1H-1,2,3-triazol-1-yl)-2-(2,4-difluorophenyl)-3-(1H-1,2,4-triazol-1-yl)propan-2-ol], the MIC50 is 4 µg/mL (≈ 8.8 µM) in assay [1]; 64 µg/mL (≈ 141 µM) in assay [2]; 1 µg/mL (≈ 2.2 µM) in assay [3]; 0.5 µg/mL (≈ 1.1 µM) in assay [4]; more than 128 µg/mL in assay [5]; more than 128 µg/mL in assay [6]. Moreover, the figures for the MIC50 in assay [7] and in assay [8] were more than 128 µg/mL and 4 µg/mL (≈ 8.8 µM), respectively.
As to `CC(=O)Nc1ccc(OCc2cn(CC(O)(Cn3cncn3)c3ccc(F)cc3F)nn2)cc1` (centres unmarked) [Compound 1D-4, 1-(4-(4-Acetylaminophenyloxy)methyl-1H-1,2,3-triazol-1-yl)-2-(2,4-difluorophenyl)-3-(1H-1,2,4-triazol-1-yl)propan-2-ol], the MIC50 in assay [1] is more than 128 µg/mL; in assay [2] it was more than 128 µg/mL; in assay [3] it was 32 µg/mL (≈ 68.2 µM); in assay [4], 32 µg/mL (≈ 68.2 µM); in assay [5], more than 128 µg/mL; in assay [6] it was more than 128 µg/mL. Further, the MIC50 in assay [7] and in assay [8] was more than 128 µg/mL throughout.
Take `Cc1ccc(OCc2cn(CC(O)(Cn3cncn3)c3ccc(F)cc3F)nn2)cc1` (centres unmarked) [Compound 1D-5, 2-(2,4-Difluorophenyl)-1-(4-(4-methylphenyloxy)methyl-1H-1,2,3-triazol-1-yl)-3-(1H-1,2,4-triazol-1-yl)propan-2-ol]: the MIC50 in assay [1] came out at 2 µg/mL (≈ 4.69 µM); in assay [2] it was 8 µg/mL (≈ 18.8 µM); in assay [3] it was 0.03 µg/mL (≈ 0.0704 µM); in assay [4] it was 0.12 µg/mL (≈ 0.281 µM); in assay [5] it was 64 µg/mL (≈ 150 µM); in assay [6] it was 64 µg/mL (≈ 150 µM). In addition, the MIC50 in assay [7] is more than 128 µg/mL; in assay [8] it was 0.5 µg/mL (≈ 1.17 µM).
For the compound `Cc1cc(C#N)c(N)c(C#N)c1-c1ccc(OCc2cn(CC(O)(Cn3cncn3)c3ccc(F)cc3F)nn2)cc1` (centres unmarked) [Compound 1D-6, 3-Amino-4′-((1-(2-(2,4-difluorophenyl)-2-hydroxy-3-(1H-1,2,4-triazol-1-yl)propyl)-1H-1,2,3-triazol-4-yl)methoxy)-6-methylbiphenyl-2,4-dicarbonitrile], the MIC50 in assay [1] was 1 µg/mL (≈ 1.76 µM); in assay [2] it was more than 8 µg/mL; in assay [3], 0.5 µg/mL (≈ 0.881 µM); in assay [4], 0.5 µg/mL (≈ 0.881 µM); in assay [5], more than 8 µg/mL; in assay [6], more than 8 µg/mL. The MIC50 in assay [7] was more than 8 µg/mL; in assay [8], 2 µg/mL (≈ 3.52 µM).

(Values after patent publication US9540350B2, “1-substituted, 4-(substituted phenoxymethyl)-1,2,3-triazole compounds with antifungal properties and methods for preparation thereof” (FDC LIMITED, priority 2013, dated 2017).)
